ChEMBL document CHEMBL1909046, “DrugMatrix in vitro pharmacology data”

molecular target: T1, Alpha-2A adrenergic receptor (Homo sapiens, UniProt P08913); type: cell membranes, Sf9, Membrane; conditions: sf9; note: in other assays of this panel Not Active means under 50% inhibition at 10 µM
T1 sequence (P08913 whole entry): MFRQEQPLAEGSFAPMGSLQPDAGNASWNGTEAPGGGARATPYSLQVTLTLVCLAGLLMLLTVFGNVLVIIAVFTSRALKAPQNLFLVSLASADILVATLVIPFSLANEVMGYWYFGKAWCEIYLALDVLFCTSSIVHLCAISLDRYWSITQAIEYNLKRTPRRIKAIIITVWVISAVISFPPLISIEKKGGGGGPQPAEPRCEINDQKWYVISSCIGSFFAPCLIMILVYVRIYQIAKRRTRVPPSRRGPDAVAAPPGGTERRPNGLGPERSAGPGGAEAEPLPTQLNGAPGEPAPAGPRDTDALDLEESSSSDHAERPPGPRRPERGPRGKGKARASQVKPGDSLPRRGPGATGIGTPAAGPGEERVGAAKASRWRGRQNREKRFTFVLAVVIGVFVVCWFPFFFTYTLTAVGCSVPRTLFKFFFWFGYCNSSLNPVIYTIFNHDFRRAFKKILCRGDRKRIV

| Structure (SMILES) | IC50 |
| --- | --- |
| CN1C(=O)OC(C)(C)C1=O [TRIMETHADIONE] | Not Active |
| Cc1ccc(S(=O)(=O)NC(=O)NN2CCCCCC2)cc1 [TOLAZAMIDE] | Not Active |
| Cc1cnc(NC(=O)C2=C(O)c3ccccc3S(=O)(=O)N2C)s1 [MELOXICAM] | Not Active |
| CC[C@@]1(O)C(=O)OCc2c1cc1n(c2=O)Cc2cc3c(CN(C)C)c(O)ccc3nc2-1 [TOPOTECAN] | Not Active |
| CC[C@H](C)C(=O)O[C@H]1CCC=C2C=C[C@H](C)[C@H](CC[C@@H]3C[C@@H](O)CC(=O)O3)[C@H]21 [MEVASTATIN] | Not Active |
| CC(N)C12CC3CC(CC(C3)C1)C2 (stereo unspecified) [RIMANTADINE] | Not Active |

molecular target: D(1A) dopamine receptor (Homo sapiens, UniProt P21728); test: DRUGMATRIX: Dopamine D1 radioligand binding (ligand: [3H] SCH-23390); type: cell membranes, CHO, Membrane; conditions: cho; Not Active = under 50% inhibition at 10 µM
Sequence (P21728 whole entry): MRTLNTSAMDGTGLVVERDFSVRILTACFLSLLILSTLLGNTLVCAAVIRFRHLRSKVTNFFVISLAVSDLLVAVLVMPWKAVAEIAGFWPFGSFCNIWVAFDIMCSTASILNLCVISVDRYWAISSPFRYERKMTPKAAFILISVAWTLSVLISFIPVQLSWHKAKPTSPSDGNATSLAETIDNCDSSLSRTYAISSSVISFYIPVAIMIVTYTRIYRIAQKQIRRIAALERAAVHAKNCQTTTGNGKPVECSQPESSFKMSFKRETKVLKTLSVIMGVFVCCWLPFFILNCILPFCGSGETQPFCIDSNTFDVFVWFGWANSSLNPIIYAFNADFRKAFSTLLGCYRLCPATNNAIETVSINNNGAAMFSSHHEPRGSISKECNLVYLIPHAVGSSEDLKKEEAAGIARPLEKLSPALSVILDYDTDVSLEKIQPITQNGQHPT

| Structure (SMILES) | IC50 |
| --- | --- |
| CN1C(=O)OC(C)(C)C1=O [TRIMETHADIONE] | Not Active |
| Cc1ccc(S(=O)(=O)NC(=O)NN2CCCCCC2)cc1 [TOLAZAMIDE] | Not Active |
| Cc1cnc(NC(=O)C2=C(O)c3ccccc3S(=O)(=O)N2C)s1 [MELOXICAM] | Not Active |
| CC[C@@]1(O)C(=O)OCc2c1cc1n(c2=O)Cc2cc3c(CN(C)C)c(O)ccc3nc2-1 [TOPOTECAN] | Not Active |
| CC[C@H](C)C(=O)O[C@H]1CCC=C2C=C[C@H](C)[C@H](CC[C@@H]3C[C@@H](O)CC(=O)O3)[C@H]21 [MEVASTATIN] | Not Active |
| CC(N)C12CC3CC(CC(C3)C1)C2 (stereo unspecified) [RIMANTADINE] | Not Active |

molecular target: D(3) dopamine receptor (Homo sapiens, UniProt P35462); test: DRUGMATRIX: Dopamine D3 radioligand binding (ligand: [3H] Spiperone); type: cell membranes, CHO, Membrane; conditions: cho
Sequence (P35462 whole entry): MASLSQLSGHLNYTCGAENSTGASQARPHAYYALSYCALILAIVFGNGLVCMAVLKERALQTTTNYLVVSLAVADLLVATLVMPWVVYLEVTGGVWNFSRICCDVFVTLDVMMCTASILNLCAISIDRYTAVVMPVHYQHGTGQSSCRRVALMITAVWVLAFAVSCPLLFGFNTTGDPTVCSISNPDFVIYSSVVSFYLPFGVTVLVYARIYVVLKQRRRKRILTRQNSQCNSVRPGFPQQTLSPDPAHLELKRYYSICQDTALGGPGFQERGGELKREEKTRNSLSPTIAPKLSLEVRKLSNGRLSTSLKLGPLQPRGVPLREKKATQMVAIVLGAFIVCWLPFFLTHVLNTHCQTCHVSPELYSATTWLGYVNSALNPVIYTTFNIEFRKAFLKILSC

| Structure (SMILES) | IC50 |
| --- | --- |
| CN1C(=O)OC(C)(C)C1=O [TRIMETHADIONE] | Not Active |
| Cc1ccc(S(=O)(=O)NC(=O)NN2CCCCCC2)cc1 [TOLAZAMIDE] | Not Active |
| Cc1cnc(NC(=O)C2=C(O)c3ccccc3S(=O)(=O)N2C)s1 [MELOXICAM] | Not Active |
| CC[C@@]1(O)C(=O)OCc2c1cc1n(c2=O)Cc2cc3c(CN(C)C)c(O)ccc3nc2-1 [TOPOTECAN] | Not Active |
| CC[C@H](C)C(=O)O[C@H]1CCC=C2C=C[C@H](C)[C@H](CC[C@@H]3C[C@@H](O)CC(=O)O3)[C@H]21 [MEVASTATIN] | Not Active |
| CC(N)C12CC3CC(CC(C3)C1)C2 (stereo unspecified) [RIMANTADINE] | Not Active |

molecular target: Cytochrome P450 2E1 (Homo sapiens, UniProt P05181); conditions: bti-tn-5b1-4; note: in other assays of this panel Not Active means under 50% inhibition at 10 µM
Sequence (P05181 whole entry): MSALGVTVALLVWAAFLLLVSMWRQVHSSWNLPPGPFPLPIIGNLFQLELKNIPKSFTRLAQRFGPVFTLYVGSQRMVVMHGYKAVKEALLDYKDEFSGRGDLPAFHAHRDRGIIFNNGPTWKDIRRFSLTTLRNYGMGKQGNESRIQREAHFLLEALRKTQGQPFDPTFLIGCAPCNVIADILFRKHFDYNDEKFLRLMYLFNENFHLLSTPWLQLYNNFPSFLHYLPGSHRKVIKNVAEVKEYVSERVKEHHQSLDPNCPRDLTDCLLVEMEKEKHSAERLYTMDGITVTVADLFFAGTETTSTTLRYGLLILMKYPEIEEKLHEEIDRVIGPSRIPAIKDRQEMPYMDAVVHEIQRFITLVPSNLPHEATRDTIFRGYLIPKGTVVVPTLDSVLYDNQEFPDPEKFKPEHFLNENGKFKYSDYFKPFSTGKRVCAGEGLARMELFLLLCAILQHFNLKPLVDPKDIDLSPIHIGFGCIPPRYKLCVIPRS

| Structure (SMILES) | IC50 | Ki |
| --- | --- | --- |
| CN1C(=O)OC(C)(C)C1=O [TRIMETHADIONE] | Not Active | Not Active |
| Cc1cnc(NC(=O)C2=C(O)c3ccccc3S(=O)(=O)N2C)s1 [MELOXICAM] | Not Active | Not Active |
| CC[C@@]1(O)C(=O)OCc2c1cc1n(c2=O)Cc2cc3c(CN(C)C)c(O)ccc3nc2-1 [TOPOTECAN] | Not Active | Not Active |
| CC[C@H](C)C(=O)O[C@H]1CCC=C2C=C[C@H](C)[C@H](CC[C@@H]3C[C@@H](O)CC(=O)O3)[C@H]21 [MEVASTATIN] | Not Active | Not Active |
| CC(N)C12CC3CC(CC(C3)C1)C2 (stereo unspecified) [RIMANTADINE] | Not Active | Not Active |

molecular target: T2, Estrogen receptor (Homo sapiens, UniProt P03372); conditions: sf9
T2 sequence (P03372 whole entry): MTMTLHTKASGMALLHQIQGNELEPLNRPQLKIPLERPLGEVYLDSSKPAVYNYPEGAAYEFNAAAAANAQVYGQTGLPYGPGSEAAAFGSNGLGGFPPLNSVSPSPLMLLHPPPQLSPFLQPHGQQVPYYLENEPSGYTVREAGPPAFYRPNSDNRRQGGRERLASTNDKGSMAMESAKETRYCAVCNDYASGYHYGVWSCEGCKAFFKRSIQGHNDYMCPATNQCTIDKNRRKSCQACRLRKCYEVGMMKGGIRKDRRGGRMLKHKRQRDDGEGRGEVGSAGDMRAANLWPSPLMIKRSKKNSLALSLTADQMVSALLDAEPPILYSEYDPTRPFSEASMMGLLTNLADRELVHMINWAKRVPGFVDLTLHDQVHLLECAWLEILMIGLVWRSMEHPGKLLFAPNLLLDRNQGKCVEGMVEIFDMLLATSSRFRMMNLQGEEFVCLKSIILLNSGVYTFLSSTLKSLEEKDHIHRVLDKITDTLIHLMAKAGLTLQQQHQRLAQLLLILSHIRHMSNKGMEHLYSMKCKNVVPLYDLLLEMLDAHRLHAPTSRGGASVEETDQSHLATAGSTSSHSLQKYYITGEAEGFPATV

| Structure (SMILES) | IC50 |
| --- | --- |
| CN1C(=O)OC(C)(C)C1=O [TRIMETHADIONE] | Not Active |
| Cc1ccc(S(=O)(=O)NC(=O)NN2CCCCCC2)cc1 [TOLAZAMIDE] | Not Active |
| Cc1cnc(NC(=O)C2=C(O)c3ccccc3S(=O)(=O)N2C)s1 [MELOXICAM] | Not Active |
| CC[C@@]1(O)C(=O)OCc2c1cc1n(c2=O)Cc2cc3c(CN(C)C)c(O)ccc3nc2-1 [TOPOTECAN] | Not Active |
| CC[C@H](C)C(=O)O[C@H]1CCC=C2C=C[C@H](C)[C@H](CC[C@@H]3C[C@@H](O)CC(=O)O3)[C@H]21 [MEVASTATIN] | Not Active |
| CC(N)C12CC3CC(CC(C3)C1)C2 (stereo unspecified) [RIMANTADINE] | Not Active |

molecular target: Estrogen receptor beta (Homo sapiens, UniProt Q92731); conditions: sf9; note: in other assays of this panel Not Active means under 50% inhibition at 10 µM
Sequence (Q92731 whole entry): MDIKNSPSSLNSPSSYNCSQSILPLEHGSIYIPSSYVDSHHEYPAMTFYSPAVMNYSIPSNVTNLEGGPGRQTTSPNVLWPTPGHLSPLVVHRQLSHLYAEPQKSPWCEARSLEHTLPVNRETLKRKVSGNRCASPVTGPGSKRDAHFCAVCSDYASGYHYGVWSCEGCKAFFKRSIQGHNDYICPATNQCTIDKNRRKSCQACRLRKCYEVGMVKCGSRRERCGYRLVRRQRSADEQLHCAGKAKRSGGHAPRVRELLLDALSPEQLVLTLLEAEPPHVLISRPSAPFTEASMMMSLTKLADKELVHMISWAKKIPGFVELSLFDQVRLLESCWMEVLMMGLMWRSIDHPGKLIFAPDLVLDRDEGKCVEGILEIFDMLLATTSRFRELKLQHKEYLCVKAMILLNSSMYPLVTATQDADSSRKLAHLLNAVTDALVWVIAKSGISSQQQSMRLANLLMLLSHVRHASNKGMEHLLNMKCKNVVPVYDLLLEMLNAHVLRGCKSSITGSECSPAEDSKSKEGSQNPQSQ

| Structure (SMILES) | IC50 |
| --- | --- |
| CN1C(=O)OC(C)(C)C1=O [TRIMETHADIONE] | Not Active |
| Cc1ccc(S(=O)(=O)NC(=O)NN2CCCCCC2)cc1 [TOLAZAMIDE] | Not Active |
| Cc1cnc(NC(=O)C2=C(O)c3ccccc3S(=O)(=O)N2C)s1 [MELOXICAM] | Not Active |
| CC[C@@]1(O)C(=O)OCc2c1cc1n(c2=O)Cc2cc3c(CN(C)C)c(O)ccc3nc2-1 [TOPOTECAN] | Not Active |
| CC[C@H](C)C(=O)O[C@H]1CCC=C2C=C[C@H](C)[C@H](CC[C@@H]3C[C@@H](O)CC(=O)O3)[C@H]21 [MEVASTATIN] | Not Active |
| CC(N)C12CC3CC(CC(C3)C1)C2 (stereo unspecified) [RIMANTADINE] | Not Active |

molecular target: T3, Glucocorticoid receptor (Homo sapiens, UniProt P04150); conditions: hela s3; note: in other assays of this panel Not Active means under 50% inhibition at 10 µM
T3 sequence (P04150 whole entry): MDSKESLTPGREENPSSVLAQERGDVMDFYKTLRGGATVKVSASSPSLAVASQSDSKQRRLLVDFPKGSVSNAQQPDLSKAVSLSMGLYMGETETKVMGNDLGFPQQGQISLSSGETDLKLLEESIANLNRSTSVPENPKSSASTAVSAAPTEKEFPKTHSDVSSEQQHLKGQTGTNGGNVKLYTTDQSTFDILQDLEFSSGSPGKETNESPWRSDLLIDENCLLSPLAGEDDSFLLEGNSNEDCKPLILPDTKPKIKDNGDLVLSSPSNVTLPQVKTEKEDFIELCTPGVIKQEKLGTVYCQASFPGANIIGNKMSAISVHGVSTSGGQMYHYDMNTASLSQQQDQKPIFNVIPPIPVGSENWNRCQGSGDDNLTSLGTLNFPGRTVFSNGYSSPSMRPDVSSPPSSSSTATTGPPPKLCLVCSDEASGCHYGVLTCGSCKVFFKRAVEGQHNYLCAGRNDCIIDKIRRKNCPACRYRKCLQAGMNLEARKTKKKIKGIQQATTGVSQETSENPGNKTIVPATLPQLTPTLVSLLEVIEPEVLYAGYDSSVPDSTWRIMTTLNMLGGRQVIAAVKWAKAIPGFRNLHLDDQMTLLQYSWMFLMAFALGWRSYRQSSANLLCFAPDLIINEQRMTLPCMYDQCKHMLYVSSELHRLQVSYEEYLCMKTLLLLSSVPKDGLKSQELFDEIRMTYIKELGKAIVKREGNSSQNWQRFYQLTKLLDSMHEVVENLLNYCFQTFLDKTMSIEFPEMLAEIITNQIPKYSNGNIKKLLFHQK

| Structure (SMILES) | IC50 |
| --- | --- |
| CN1C(=O)OC(C)(C)C1=O [TRIMETHADIONE] | Not Active |
| Cc1ccc(S(=O)(=O)NC(=O)NN2CCCCCC2)cc1 [TOLAZAMIDE] | Not Active |
| Cc1cnc(NC(=O)C2=C(O)c3ccccc3S(=O)(=O)N2C)s1 [MELOXICAM] | Not Active |
| CC[C@@]1(O)C(=O)OCc2c1cc1n(c2=O)Cc2cc3c(CN(C)C)c(O)ccc3nc2-1 [TOPOTECAN] | Not Active |
| CC[C@H](C)C(=O)O[C@H]1CCC=C2C=C[C@H](C)[C@H](CC[C@@H]3C[C@@H](O)CC(=O)O3)[C@H]21 [MEVASTATIN] | Not Active |
| CC(N)C12CC3CC(CC(C3)C1)C2 (stereo unspecified) [RIMANTADINE] | Not Active |
